Experimental data: patent US20230095836A1, “SUBSTITUTED 5,6-DIPHENYL-3(2H)-PYRIDAZINONES FOR USE AS FUNGICIDES” (FMC Corporation, priority 2020, published 2023)

Tests used:
Format in all cases: in vivo
Zymoseptoria tritici = assay: Test A: test solution sprayed on wheat seedlings, inoculated next day with Zymoseptoria tritici (wheat leaf blotch); disease rating (100 = 100% disease control, 0 = no control; dash = not tested)
Procedure: The resulting test suspensions were then used in Tests A-F. The test solution was sprayed to the point of run-off on wheat seedlings. The following day the seedlings were inoculated with a spore suspension of Zymoseptoria tritici (the causal agent of wheat leaf blotch) and incubated in a saturated atmosphere at 24° C. for 48 h, and then moved to a growth chamber at 20° C. for 17 days, after which time disease ratings were made. A rating of 100 indicates 100% disease control and a rating of 0 indicates no disease control (relative to the controls). A dash (—) indicates the compound was not tested.

[1] = test system: Puccinia recondita f. sp. tritici; assay: Test B: test solution sprayed on wheat seedlings, inoculated next day with Puccinia recondita f. sp. tritici (wheat leaf rust); disease rating (100 = 100% disease control, 0 = no control; dash = not tested)
Source text: The resulting test suspensions were then used in Tests A-F. The test solution was sprayed to the point of run-off on wheat seedlings. […] A rating of 100 indicates 100% disease control and a rating of 0 indicates no disease control (relative to the controls). A dash (—) indicates the compound was not tested.

[2] = test system: Blumeria graminis f. sp. tritici; assay: Test C: test suspension sprayed on wheat seedlings, inoculated next day with Blumeria graminis f. sp. tritici (wheat powdery mildew); visual disease rating (100 = 100% disease control, 0 = no control; dash = not tested)
Procedure: The resulting test suspensions were then used in Tests A-F. The test suspension was sprayed to the point of run-off on wheat seedlings. The following day the seedlings were inoculated with a spore dust of Blumeria graminis f. sp. tritici, (also known as Erysiphe graminis f. sp. tritici, the causal agent of wheat powdery mildew) and incubated in a growth chamber at 20° C. for 8 days, after which time visual disease ratings were made. A rating of 100 indicates 100% disease control and a rating of 0 indicates no disease control (relative to the controls). A dash (—) indicates the compound was not tested.

Phakopsora pachyrhizi = assay: Test D: test solution sprayed on soybean seedlings, inoculated next day with Phakopsora pachyrhizi (Asian soybean rust); visual disease rating (100 = 100% disease control, 0 = no control; dash = not tested)
Source text: General protocol for preparing test suspensions for Tests A-F: the test compounds were first dissolved in acetone in an amount equal to 3% of the final volume and then suspended at the desired concentration (in ppm) in acetone and purified water (50/50 mix by volume) containing 250 ppm of the surfactant PEG400 (polyhydric alcohol esters). The resulting test suspensions were then used in Tests A-F.
The test solution was sprayed to the point of run-off on soybean seedlings. The following day the seedlings were inoculated with a spore suspension of Phakopsora pachyrhizi (the causal agent of Asian soybean rust) and incubated in a saturated atmosphere at 22° C. for 24 h and then moved to a growth chamber at 22° C. for 8 days, after which time visual disease ratings were made.
A rating of 100 indicates 100% disease control and a rating of 0 indicates no disease control (relative to the controls). A dash (—) indicates the compound was not tested.

Botrytis cinerea = assay: Test E: test suspension sprayed on tomato seedlings, inoculated next day with Botrytis cinerea (tomato Botrytis); visual disease rating (100 = 100% disease control, 0 = no control; dash = not tested)
Procedure: (§1) The resulting test suspensions were then used in Tests A-F. The test suspension was sprayed to the point of run-off on tomato seedlings. The following day the seedlings were inoculated with a spore suspension of Botrytis cinerea (the causal agent of tomato Botrytis) and incubated in a saturated atmosphere at 20° C. for 48 h, and then moved to a growth chamber at 24° C. for 3 days, after which time visual disease ratings were made. A rating of 100 indicates 100% disease control and a rating of 0 indicates no disease control (relative to the controls). A dash (—) indicates the compound was not tested.

Alternaria solani = assay: Test F: test suspension sprayed on tomato seedlings, inoculated next day with Alternaria solani (tomato early blight); visual disease rating (100 = 100% disease control, 0 = no control; dash = not tested)
Procedure: as §1, with “Alternaria solani” for “Botrytis cinerea”, “early blight)” for “Botrytis)”, “27°” for “20°”, “20°” for “24°”

| SMILES | Test A disease control rating (Zymoseptoria tritici; 50 ppm) [%] | Test B disease control rating ([1]; 50 ppm) [%] | Test C disease control rating ([2]; 50 ppm) [%] | Test D disease control rating (Phakopsora pachyrhizi; 50 ppm) [%] | Test E disease control rating (Botrytis cinerea; 50 ppm) [%] | Test F disease control rating (Alternaria solani; 50 ppm) [%] | other results |
| --- | --- | --- | --- | --- | --- | --- | --- |
| CCn1nc(-c2cc(OC)cc(OC)c2)c(-c2cc(OC)cc(OC)c2)cc1=O [Compound 3] | – | – | – | – | – | – | Test A disease control rating (Zymoseptoria tritici; 250 ppm): 7%; Test B disease control rating ([1]; 250 ppm): 0%; Test C disease control rating ([2]; 250 ppm): 0%; Test D disease control rating (Phakopsora pachyrhizi; 250 ppm): 0%; Test E disease control rating (Botrytis cinerea; 250 ppm): 0%; Test F disease control rating (Alternaria solani; 250 ppm): 0% |
| COc1ccc(F)c(-c2nn(C)c(=O)c(C)c2-c2ccc(F)cc2Cl)c1 [Compound 138] | 100 | 100 | 100 | 100 | 93 | 100 | – |
| CCc1c(-c2c(F)cccc2F)c(-c2cccc(OC)c2Cl)nn(C)c1=O [Compound 178] | 100 | 100 | 100 | 100 | 93 | 100 | – |
| COc1c(-c2ccc(F)cc2Cl)c(-c2ccccc2)nn(C)c1=O [Compound 142, 5-(2-chloro-4-fluorophenyl)-4-methoxy-2-methyl-6-phenyl-3(2H)-pyridazinone] | – | – | – | – | – | – | pest or weed control at 50 ppm (Zymoseptoria tritici; 50 ppm): 95%; pest or weed control at 50 ppm ([1]; 50 ppm): 68%; pest or weed control at 50 ppm ([2]; 50 ppm): 99%; pest or weed control at 50 ppm (Phakopsora pachyrhizi; 50 ppm): 0%; pest or weed control at 50 ppm (Botrytis cinerea; 50 ppm): 98%; pest or weed control at 50 ppm (Alternaria solani; 50 ppm): 98% |
| COc1c(-c2ccc(F)cc2Cl)c(-c2cc(F)ccc2Br)nn(C)c1=O [Compound 121] | 100 | 100 | 99 | 72 | 99 | 99 | – |
| Cn1nc(-c2ccccc2Cl)c(-c2ccc(F)cc2Cl)c(O)c1=O [Compound 182] | 0 | 0 | 0 | 0 | 0 | 0 | – |
| COc1cc(OC)cc(C2=NN(C)C(=O)CC2c2ccc(F)cc2Cl)c1 (stereo not drawn) [Compound 20] | – | – | – | – | – | – | Test A disease control rating (Zymoseptoria tritici; 250 ppm): 51%; Test B disease control rating ([1]; 250 ppm): 9%; Test C disease control rating ([2]; 250 ppm): 21%; Test D disease control rating (Phakopsora pachyrhizi; 250 ppm): 0%; Test E disease control rating (Botrytis cinerea; 250 ppm): 31%; Test F disease control rating (Alternaria solani; 250 ppm): 0% |
| COc1c(-c2ccc(F)cc2Cl)c(-c2cccc(F)c2Br)nn(C)c1=O [Compound 110] | 100 | 100 | 100 | 79 | 96 | 99 | – |
| Cn1nc(-c2ccccc2)c(-c2c(F)cccc2F)cc1=O [Compound 191] | – | – | – | – | – | – | Test A disease control rating (Zymoseptoria tritici; 250 ppm): 72%; Test B disease control rating ([1]; 250 ppm): 9%; Test C disease control rating ([2]; 250 ppm): 99%; Test D disease control rating (Phakopsora pachyrhizi; 250 ppm): 0%; Test E disease control rating (Botrytis cinerea; 250 ppm): 99%; Test F disease control rating (Alternaria solani; 250 ppm): 0% |
| COc1ccc(Cl)c(-c2nn(C)c(=O)c(C3CC3)c2-c2ccc(F)cc2Cl)c1 [Compound 139] | 100 | 86 | 91 | 0 | 93 | 9 | – |
| Cn1nc(-c2cccc(F)c2F)c(-c2ccc(F)cc2Cl)c(Cl)c1=O [Compound 107] | 100 | 100 | 100 | 100 | 97 | 100 | – |
| Cn1nc(-c2cc(C#N)ccc2Cl)c(-c2ccc(F)cc2Cl)c(Cl)c1=O [Compound 49] | 100 | 100 | 98 | 96 | 96 | 99 | – |
| COc1ccc(Cl)c(-c2nn(C)c(=O)c(Cl)c2-c2ccccc2)c1 [Compound 95] | 100 | 99 | 97 | 0 | 96 | 24 | – |
| Cn1nc(-c2cc(F)ccc2Cl)c(-c2ccc(F)cc2Cl)c(Cl)c1=O [Compound 82] | 100 | 100 | 100 | 100 | 64 | 100 | – |
| CCn1nc(-c2c(F)cccc2F)c(-c2cc(OC)cc(OC)c2)cc1=O [Compound 4, 6-(2,6-difluorophenyl)-5-(3,5-dimethoxyphenyl)-2-ethyl-3(2H)-pyridazinone] | – | – | – | – | – | – | pest or weed control at 250 ppm (Zymoseptoria tritici; 250 ppm): 66%; pest or weed control at 250 ppm ([1]; 250 ppm): 0%; pest or weed control at 250 ppm ([2]; 250 ppm): 0%; pest or weed control at 250 ppm (Phakopsora pachyrhizi; 250 ppm): 0%; pest or weed control at 250 ppm (Botrytis cinerea; 250 ppm): 9%; pest or weed control at 250 ppm (Alternaria solani; 250 ppm): 0% |
| CCn1nc(-c2c(F)cccc2F)c(-c2cc(OC)cc(OC)c2)c(Cl)c1=O [Compound 10, 4-chloro-6-(2,6-difluorophenyl)-5-(3,5-dimethoxyphenyl)-2-ethyl-3(2H)-pyridazinone] | – | – | – | – | – | – | pest or weed control at 250 ppm (Zymoseptoria tritici; 250 ppm): 0%; pest or weed control at 250 ppm ([1]; 250 ppm): 0%; pest or weed control at 250 ppm ([2]; 250 ppm): 0%; pest or weed control at 250 ppm (Phakopsora pachyrhizi; 250 ppm): 0%; pest or weed control at 250 ppm (Botrytis cinerea; 250 ppm): 0%; pest or weed control at 250 ppm (Alternaria solani; 250 ppm): 0% |
| COc1cc(-c2nn(C)c(=O)c(Cl)c2-c2ccc(F)cc2Cl)cc(C#N)c1Cl [Compound 52] | 100 | 100 | 99 | 98 | 92 | 100 | – |
| Cn1nc(-c2cc(F)ccc2Cl)c(-c2c(F)cccc2F)cc1=O [Compound 28] | – | – | – | – | – | – | Test A disease control rating (Zymoseptoria tritici; 250 ppm): 100%; Test B disease control rating ([1]; 250 ppm): 100%; Test C disease control rating ([2]; 250 ppm): 100%; Test D disease control rating (Phakopsora pachyrhizi; 250 ppm): 0%; Test E disease control rating (Botrytis cinerea; 250 ppm): 100%; Test F disease control rating (Alternaria solani; 250 ppm): 0% |
| Cn1nc(-c2ccccc2Cl)c(-c2ccc(F)cc2Cl)c(Cl)c1=O [Compound 73] | 100 | 100 | 99 | 97 | 99 | 99 | – |
| Cn1nc(-c2cccc(F)c2Cl)c(-c2ccc(F)cc2Cl)c(Cl)c1=O [Compound 145] | 100 | 100 | 100 | 99 | 100 | 100 | – |
| CCn1nc(-c2ccc(F)cc2Cl)c(-c2ccc(F)cc2Cl)c(C#N)c1=O [Compound 7] | – | – | – | – | – | – | Test A disease control rating (Zymoseptoria tritici; 250 ppm): 98%; Test B disease control rating ([1]; 250 ppm): 74%; Test C disease control rating ([2]; 250 ppm): 0%; Test D disease control rating (Phakopsora pachyrhizi; 250 ppm): 0%; Test E disease control rating (Botrytis cinerea; 250 ppm): 99%; Test F disease control rating (Alternaria solani; 250 ppm): 0% |
| CCn1nc(-c2c(Cl)c(OC)cc(OC)c2Cl)c(-c2c(F)cccc2F)cc1=O [Compound 2] | – | – | – | – | – | – | Test A disease control rating (Zymoseptoria tritici; 250 ppm): 2%; Test B disease control rating ([1]; 250 ppm): 0%; Test C disease control rating ([2]; 250 ppm): 0%; Test D disease control rating (Phakopsora pachyrhizi; 250 ppm): 0%; Test E disease control rating (Botrytis cinerea; 250 ppm): 0%; Test F disease control rating (Alternaria solani; 250 ppm): 0% |
| COc1cc(OC)c(Br)c(-c2nn(C)c(=O)c(Br)c2-c2ccc(F)cc2Cl)c1 [Compound 61] | 100 | 100 | 94 | 99 | 100 | 99 | – |
